system: Human RSV-A (“Long” strain); assay: RSV in vitro cytoprotection assay in HEp-2 cells (ATPlite read-out); type: cell-based; conditions: human respiratory syncytial virus, 96 h; HEp-2 cells, genotype A “Long” strain RSV, 4-day incubation, ATPlite; read-out: Human RSV-A (“Long” strain) EC50
Text: RSV is a single stranded negative sense RNA virus that causes respiratory tract infections which can be dangerous to infants, the elderly, and immunosuppressed individuals. Currently there is no vaccine, and therapeutic options are both costly and of limited effectiveness. These approved treatments are Ribavirin, and Palivizumab/Synagis (a monoclonal antibody). RSV has two genotypes, A and B, which differ primarily in the structure of the virus' surface “G” attachment protein. Our current primary screen focuses on RSV-A and uses an in vitro cytoprotection assay where compounds are added in 2-fold dilutions to cells which are then subjected to fully replicative viral particles. Cell viability is measured several days later along with separate measurements of compound cytotoxicity. This report focuses on the results of our most recent screening of compounds.
HEp-2 cells, (originally derived from tumors grown in irradiated-cortisonised weanling rats that had been injected with epidermoid carcinoma tissue from a person's larynx, but later found to be indistinguishable from HeLa cells by PCR DNA analysis), were used for the culturing of genotype A, “Long” strain RSV. Flasks were inoculated with RSV and viral stocks were collected once cytopathic effect (CPE) was greater than 90%. Viral stocks in 25% sucrose media were snap frozen using liquid nitrogen to increase viral stability. Viral stock titers were quantified by tissue culture infectious dose 50% (TCID50) using 8,000 cells per well and 3-fold viral dilutions across a 96-well plate, cultured for 4 days.
Following extensive parameter testing, the final assay is run as follows: HEp-2 cells are seeded into the inner 60 wells of a 96-well plate at 8,000 cells per well in a volume of 50 μL using Growth Media (DMEM without phenol red, 1% L-Glut, 1% Penn/Strep, 1% nonessential amino acids, 10% FBS). 2-Fold serial dilutions of control and test compounds are added to the wells in duplicate in a total volume of 25 μL. Viral stock is then added to the wells in a volume of 25 μL, bringing the total volume of each well to 100 μL. Each 96-well plate has a control column of 6 wells with cells and virus but no compound (negative control, max CPE), a column with cells but no compound or virus (positive control, minimum CPE), and a column with no cells or virus or compound (background plate/reagent control). The control wells with cells but no virus are given an additional 25 μL of growth media containing an equal quantity of sucrose as those wells receiving the viral stock in order to keep consistent in media and volume conditions. The outer wells of the plate are filled with 125 μL of growth media to act as a thermal and evaporative moat around the test wells. Following a 4-day incubation period, the plates are read using ATPlite (50 μL added per well), which quantifies the amount of ATP (a measure of cell health) present in each well. Assay plates are read using the Envision luminometer. In parallel, cytotoxicity is examined on an additional 96-well plate treated in an identical manner, but substituting the 25 μL of viral stock for 25 μL of growth media. […] EC50 ranges are as follows: A<0.1 μM; B 0.1-0.5 μM; C>0.5 μM

| SMILES | EC50 |
| --- | --- |
| Cc1cnc(N2CC3(CCOCC3)C2)c(C(=O)Nc2ccc(C(=O)N3CCc4cc(C(=O)c5nc6cc(F)ccc6[nH]5)sc4-c4ccc(F)cc43)cc2)c1 [Example 5] | 0.1 to 0.5 µM |
| Cc1cnc(N2CC3(CCOCC3)C2)c(C(=O)Nc2ccc(C(=O)N3CCc4cc(C(=O)c5cc(C(F)(F)F)n[nH]5)sc4-c4ccc(F)cc43)cc2)c1 [Example 34] | 0.1 to 0.5 µM |
| Cc1ccc(C(=O)Nc2ccc(C(=O)N3CCc4cc(C(=O)c5[nH]nnc5C)sc4-c4ccc(F)cc43)cc2)c(N2CC3(CCOCC3)C2)n1 [Example 37] | 0.1 to 0.5 µM |
| Cc1cnc(N2CC3(CCOCC3)C2)c(C(=O)Nc2ccc(C(=O)N3CCc4cc(C(=O)c5ncccc5C)sc4-c4ccccc43)cc2)c1 [Example 40] | 0.1 to 0.5 µM |
| Cc1cnc(N2CC3(CCOCC3)C2)c(C(=O)Nc2ccc(C(=O)N3CCc4cc(C(=O)c5ccccc5C)sc4-c4ccccc43)cc2)c1 [Example 38] | > 0.5 µM |
| Cc1cnc(N2CC3(CCOCC3)C2)c(C(=O)Nc2ccc(C(=O)N3CCc4cc(C(=O)c5ccccc5F)sc4-c4ccccc43)cc2)c1 [Example 39] | 0.1 to 0.5 µM |
| Cc1cnc(N2CC3(CCOCC3)C2)c(C(=O)Nc2ccc(C(=O)N3CCc4cc(C(=O)c5nnc(C)o5)sc4-c4ccc(F)cc43)cc2)c1 [Example 31] | 0.1 to 0.5 µM |
| Cc1cnc(N2CC3(CCOCC3)C2)c(C(=O)Nc2ccc(C(=O)N3CCc4cc(C(=O)c5ncc6ccccn56)sc4-c4ccc(F)cc43)cc2)c1 [Example 29] | < 0.1 µM |
| Cc1cnc(N2CC3(CCOCC3)C2)c(C(=O)Nc2ccc(C(=O)N3CCc4cc(C(=O)c5nc6ncccc6[nH]5)sc4-c4ccc(F)cc43)cc2)c1 [Example 3] | < 0.1 µM |
| Cc1cnc(N2CC3(CCOCC3)C2)c(C(=O)Nc2ccc(C(=O)N3CCc4cc(C(=O)c5nc6ccccc6n5C)sc4-c4ncccc43)cc2)c1 [Example 25] | 0.1 to 0.5 µM |
| Cc1cnc(N2CC3(CCOCC3)C2)c(C(=O)Nc2ccc(C(=O)N3CCc4cc(C(=O)c5nc6ccccc6[nH]5)oc4-c4ccccc43)cc2)c1 [Example 12] | < 0.1 µM |
| Cc1cnc(N2CC3(CCOCC3)C2)c(C(=O)Nc2ccc(C(=O)N3CCc4cc(C(=O)c5[nH]nnc5C)sc4-c4ccc(F)cc43)cc2)c1 [Example 36] | < 0.1 µM |
| Cc1cnc(N2CC3(CCOCC3)C2)c(C(=O)Nc2ccc(C(=O)N3CCc4cc(C(=O)c5nc6c(F)cccc6[nH]5)oc4-c4ccccc43)cc2)c1 [Example 16] | < 0.1 µM |
| Cc1cnc(N2CC3(CCOCC3)C2)c(C(=O)Nc2ccc(C(=O)N3CCc4cc(C(=O)c5nc6ccccc6[nH]5)sc4-c4ccc(F)cc43)cc2)c1 [Example 8] | < 0.1 µM |
| Cc1cnc(N2CC3(CCOCC3)C2)c(C(=O)Nc2ccc(C(=O)N3CCc4cc(C(=O)c5nc6c([nH]5)CCCC6)oc4-c4ccccc43)cc2)c1 [Example 17] | < 0.1 µM |
| Cc1cnc(N2CC3(CCOCC3)C2)c(C(=O)Nc2ccc(C(=O)N3CCc4cc(C(=O)c5nccn5C)sc4-c4ccc(F)cc43)cc2)c1 [Example 1] | < 0.1 µM |
| Cc1cnc(N2CC3(CCOCC3)C2)c(C(=O)Nc2ccc(C(=O)N3CCc4cc(C(=O)c5nc(C6CC6)c[nH]5)sc4-c4ccc(F)cc43)cc2)c1 [Example 10] | 0.1 to 0.5 µM |
| Cc1cnc(N2CC3(CCOCC3)C2)c(C(=O)Nc2ccc(C(=O)N3CCc4cc(C(=O)c5ncc(C)[nH]5)oc4-c4ccccc43)cc2)c1 [Example 14] | < 0.1 µM |
| Cc1cnc(N2CC3(CCOCC3)C2)c(C(=O)Nc2ccc(C(=O)N3CCc4cc(C(=O)c5nc6c([nH]5)CCC6)sc4-c4ncccc43)cc2)c1 [Example 24] | < 0.1 µM |
| Cc1cnc(N2CC3(CCOCC3)C2)c(C(=O)Nc2ccc(C(=O)N3CCc4cc(C(=O)c5cc(C)n[nH]5)sc4-c4ccc(F)cc43)cc2)c1 [Example 35] | < 0.1 µM |
| Cc1cnc(N2CC3(CCOCC3)C2)c(C(=O)Nc2ccc(C(=O)N3CCc4cc(C(=O)c5nc6c(C)cccc6[nH]5)sc4-c4ncccc43)cc2)c1 [Example 20] | > 0.5 µM |
| Cc1ccc(C(=O)Nc2ccc(C(=O)N3CCc4c(sc(C(=O)c5nc6ccccc6[nH]5)c4F)-c4ccccc43)cc2)c(N2CC3(CCOCC3)C2)n1 [Example 27] | > 0.5 µM |
| Cc1cnc(N2CC3(CCOCC3)C2)c(C(=O)Nc2ccc(C(=O)N3CCc4cc(C(=O)c5nc6ccccc6n5C)sc4-c4ccc(F)cc43)cc2)c1 [Example 2] | 0.1 to 0.5 µM |
| Cc1cnc(N2CC3(CCOCC3)C2)c(C(=O)Nc2ccc(C(=O)N3CCc4cc(C(=O)c5nc6ccccc6[nH]5)sc4-c4ccccc43)cc2)c1 [Example 11] | < 0.1 µM |

The remaining lines, values ahead:

| EC50 | SMILES |
| --- | --- |
| < 0.1 µM | Cc1cnc(N2CC3(CCOCC3)C2)c(C(=O)Nc2ccc(C(=O)N3CCc4cc(C(=O)c5nc(C)c(C)[nH]5)oc4-c4ccccc43)cc2)c1 [Example 13] |
| < 0.1 µM | Cc1cnc(N2CC3(CCOCC3)C2)c(C(=O)Nc2ccc(C(=O)N3CCc4cc(C(=O)c5nc6c([nH]5)CCCC6)sc4-c4ncccc43)cc2)c1 [Example 23] |
| < 0.1 µM | Cc1cnc(N2CC3(CCOCC3)C2)c(C(=O)Nc2ccc(C(=O)N3CCc4cc(C(=O)c5nc6ccccc6n5C)oc4-c4ccccc43)cc2)c1 [Example 18] |
| < 0.1 µM | Cc1ccc(C(=O)Nc2ccc(C(=O)N3CCc4c(sc(C(=O)c5nccn5C)c4F)-c4ccccc43)cc2)c(N2CC3(CCOCC3)C2)n1 [Example 28] |
| < 0.1 µM | Cc1cnc(N2CC3(CCOCC3)C2)c(C(=O)Nc2ccc(C(=O)N3CCc4cc(C(=O)c5nccn5C)sc4-c4ncccc43)cc2)c1 [Example 19] |
| < 0.1 µM | Cc1cnc(N2CC3(CCOCC3)C2)c(C(=O)Nc2ccc(C(=O)N3CCc4cc(C(=O)c5ncc(C)[nH]5)sc4-c4ccc(F)cc43)cc2)c1 [Example 9] |
| < 0.1 µM | Cc1cnc(N2CC3(CCOCC3)C2)c(C(=O)Nc2ccc(C(=O)N3CCc4cc(C(=O)c5nc6c(F)cccc6[nH]5)sc4-c4ccc(F)cc43)cc2)c1 [Example 7] |
| < 0.1 µM | Cc1cnc(N2CC3(CCOCC3)C2)c(C(=O)Nc2ccc(C(=O)N3CCc4cc(C(=O)c5nc6c(F)cccc6[nH]5)sc4-c4ncccc43)cc2)c1 [Example 26] |
| < 0.1 µM | Cc1cnc(N2CC3(CCOCC3)C2)c(C(=O)Nc2ccc(C(=O)N3CCc4cc(C(=O)c5nc(C)c(C)[nH]5)sc4-c4ccc(F)cc43)cc2)c1 [Example 4] |
| < 0.1 µM | Cc1cnc(N2CC3(CCOCC3)C2)c(C(=O)Nc2ccc(C(=O)N3CCc4cc(C(=O)c5nc(C(F)(F)F)c[nH]5)sc4-c4ccc(F)cc43)cc2)c1 [Example 33] |
| < 0.1 µM | Cc1cnc(N2CC3(CCOCC3)C2)c(C(=O)Nc2ccc(C(=O)N3CCc4cc(C(=O)c5nc(C#N)c[nH]5)sc4-c4ccc(F)cc43)cc2)c1 [Example 32] |
| < 0.1 µM | Cc1cnc(N2CC3(CCOCC3)C2)c(C(=O)Nc2ccc(C(=O)N3CCc4cc(C(=O)c5nc6ccccc6[nH]5)sc4-c4ncccc43)cc2)c1 [Example 21] |
| < 0.1 µM | Cc1cnc(N2CC3(CCOCC3)C2)c(C(=O)Nc2ccc(C(=O)N3CCc4cc(C(=O)c5nc6c(C)cccc6[nH]5)oc4-c4ccccc43)cc2)c1 [Example 15] |
| < 0.1 µM | Cc1cnc(N2CC3(CCOCC3)C2)c(C(=O)Nc2ccc(C(=O)N3CCc4cc(C(=O)c5nc6c(C)cccc6[nH]5)sc4-c4ccc(F)cc43)cc2)c1 [Example 6] |
| < 0.1 µM | Cc1cnc(N2CC3(CCOCC3)C2)c(C(=O)Nc2ccc(C(=O)N3CCc4cc(C(=O)c5nc6ccccc6o5)sc4-c4ccc(F)cc43)cc2)c1 [Example 30] |

same assay, conditions: human respiratory syncytial virus, HEp-2

| SMILES | EC50 |
| --- | --- |
| O=C(Nc1ccccc1F)N[C@H]1N=C(c2ccccc2)c2ccccc2NC1=O [RSV-604, reference compound] | ~2.4 µM |

— patent US10975094B2, “Heterocyclic compounds as RSV inhibitors” (Enanta Pharmaceuticals, Inc., priority 2018, dated 2021)
